Key:
[1] = test system: anti-topiramate antibodies prepared with immunogen (18); experiment: ELISA binding inhibition study (avidity), free topiramate vs coated antigens; design: species or system Rabbit; conditions: for Abs Antigen 16 / Abs Antigen 19 / Abs Antigen 20: 405 nm
Experimental: ELISA plates for use in an ELISA assay are prepared in order to study the polyclonal antibody prepared as described in Example 21. As such, various topiramate antigens (16), (19), and (20) are coated on different ELISA plates before being subjected to the anti-topiramate antibody and competing free topiramate. More particularly, the topiramate antigens are diluted in coating buffer, and then added to the wells of ELISA plate. After the ELISA plate is inculcated for 60 min at 37° C., the solvent in the coating buffer is decanted and a blocking buffer is added to the plate. The plate is incubated again for 60 min at 37° C., and the solvent in the blocking buffer is decanted from the plate. The ELISA plate is then stored with the blocking agent in the wells at 2-8° C. for up to 1 week. The avidity of the anti-topiramate antibodies prepared with immunogen (17) for topirainate analogs are determined by a binding inhibition study. As such, samples are prepared in 1 mL of PBS at pH 7.4 with 0.1% BSA. A composition having 30% Bmax titer or 50% Bmax titer is used to divide the obtained titer value into approximately half the titer value. Using 30% Bmax, an antibody titer of 1:10000 is diluted to 1:5000 during the sample preparation stage. About 50 μL of topiramate at different concentrations or calibrator values, (0, 2, 4, 8, 16, 32 μg/ml) are then applied to a plate as prepared in accordance with Example 22. About 50 μL of the diluted antibody is dispensed into the plate, and the compositions in the plate are mixed for 1 min on a horizontal plate shaker. The plate is characterized by a first row not containing topiramate or anti-topiramate antibody, wherein the first row is used as a negative control. A second row not containing topiramate is used as the positive control. The plate is incubated for 60 min, and washed three times with 250 μL of PBS at pH 7.4 with 0.05% tween. About 125 μL of a diluted second antibody conjugate such as antigens (16), (19), or (20), in PBS at pH 7.4 is added to each well of the plate. Titer is determined experimentally by the plate being incubated for 60 min at 37° C. and washed 3 times with 250 μL PBS, pH 7.4 with 0.05% tween. Subsequently, about 125 μL of ABTS substrate is added to each well of the plate and incubated for 20 min. The avidity of the anti-topiramate antibodies prepared with immunogen (18) for topiramate analogs is determined by a binding inhibition study performed with an experimental protocol substantially similar as in Example 24.

[2] = cited from earlier work
[3] = Rabbit No. 5490, topiramate 2 μg/ml
[4] = Rabbit No. 5490, topiramate 4 μg/ml
[5] = Rabbit No. 5490, topiramate 8 μg/ml
[6] = Rabbit No. 5490, topiramate 16 μg/ml
[7] = Rabbit No. 5490, topiramate 32 μg/ml
[8] = Rabbit No. 5495, topiramate 2 μg/ml
[9] = Rabbit No. 5495, topiramate 4 μg/ml
[10] = Rabbit No. 5495, topiramate 8 μg/ml
[11] = Rabbit No. 5495, topiramate 16 μg/ml
[12] = Rabbit No. 5495, topiramate 32 μg/ml
[13] = dose escalation add-on studies, morning trough serum

CC1(C)O[C@@H]2[C@@H](CO[C@@]3(COS(N)(=O)=O)OC(C)(C)O[C@@H]23)O1 [Topiramate, 2,3:4,5-di-O-isopropylidene-beta-D-fructopyranose sulfamate]
B/Bo Antigen 16 [1, 3]: 0.35 | B/Bo Antigen 19 [1, 3]: 0.18 | B/Bo Antigen 20 [1, 3]: 0.63 | Abs Antigen 16 [1, 3]: 0.25 | Abs Antigen 19 [1, 3]: 0.10 | Abs Antigen 20 [1, 3]: 0.25 | B/Bo Antigen 16 [1, 4]: 0.28 | B/Bo Antigen 19 [1, 4]: 0.10 | B/Bo Antigen 20 [1, 4]: 0.60 | Abs Antigen 16 [1, 4]: 0.20 | Abs Antigen 19 [1, 4]: 0.06 | Abs Antigen 20 [1, 4]: 0.24 | B/Bo Antigen 16 [1, 5]: 0.21 | B/Bo Antigen 19 [1, 5]: 0.07 | B/Bo Antigen 20 [1, 5]: 0.55 | Abs Antigen 16 [1, 5]: 0.15 | Abs Antigen 19 [1, 5]: 0.04 | Abs Antigen 20 [1, 5]: 0.22 | B/Bo Antigen 16 [1, 6]: 0.17 | B/Bo Antigen 19 [1, 6]: 0.06 | B/Bo Antigen 20 [1, 6]: 0.53 | Abs Antigen 16 [1, 6]: 0.12 | Abs Antigen 19 [1, 6]: 0.03 | Abs Antigen 20 [1, 6]: 0.21 | B/Bo Antigen 16 [1, 7]: 0.14 | B/Bo Antigen 19 [1, 7]: 0.04 | B/Bo Antigen 20 [1, 7]: 0.50 | Abs Antigen 16 [1, 7]: 0.10 | Abs Antigen 19 [1, 7]: 0.02 | Abs Antigen 20 [1, 7]: 0.20 | B/Bo Antigen 16 [1, 8]: 0.35 | B/Bo Antigen 19 [1, 8]: 0.20 | B/Bo Antigen 20 [1, 8]: 0.53 | Abs Antigen 16 [1, 8]: 0.25 | Abs Antigen 19 [1, 8]: 0.13 | Abs Antigen 20 [1, 8]: 0.18 | B/Bo Antigen 16 [1, 9]: 0.39 | B/Bo Antigen 19 [1, 9]: 0.12 | B/Bo Antigen 20 [1, 9]: 0.50 | Abs Antigen 16 [1, 9]: 0.28 | Abs Antigen 19 [1, 9]: 0.08 | Abs Antigen 20 [1, 9]: 0.17 | B/Bo Antigen 16 [1, 10]: 0.21 | B/Bo Antigen 19 [1, 10]: 0.08 | B/Bo Antigen 20 [1, 10]: 0.47 | Abs Antigen 16 [1, 10]: 0.15 | Abs Antigen 19 [1, 10]: 0.05 | Abs Antigen 20 [1, 10]: 0.16 | B/Bo Antigen 16 [1, 11]: 0.17 | B/Bo Antigen 19 [1, 11]: 0.06 | B/Bo Antigen 20 [1, 11]: 0.41 | Abs Antigen 16 [1, 11]: 0.12 | Abs Antigen 19 [1, 11]: 0.04 | Abs Antigen 20 [1, 11]: 0.14 | B/Bo Antigen 16 [1, 12]: 0.14 | B/Bo Antigen 19 [1, 12]: 0.03 | B/Bo Antigen 20 [1, 12]: 0.32 | Abs Antigen 16 [1, 12]: 0.10 | Abs Antigen 19 [1, 12]: 0.02 | Abs Antigen 20 [1, 12]: 0.11 | serum concentration at which a reduction in seizure control was seen [2, 13]: greater than 75 μmol/L | serum concentration with significant increase in side effects [2, 13]: > 60 µM | systemic topiramate concentrations ([2]; patients receiving higher doses, up to 2000 mg): ≤ 80 µmol/L
